Results: PubChem BioAssay AID1996
In brackets after ≈: the same amount, converted by molar mass.

details: buffer; pH 7.4; 200.0 µM

Structure (SMILES)	solubility kinetic [µg/mL]
CCC1CCCCN1C(=S)NC(=O)c1cccc([N+](=O)[O-])c1 (stereo not drawn)	> 48.2
CCOC(=O)c1cn(C2CC2)c2c(F)c(F)c(F)cc2c1=O	42.7 (≈ 137 µM)
O=C1OC(c2ccc3c(c2)OCO3)=N/C1=C\c1ccc(C(=O)O)cc1	> 50.6
NC(=O)Nc1ccc(C(=O)OCC(=O)NC2CCCc3ccccc32)cc1 (stereo not drawn)	11 (≈ 29.9 µM)
CCOC(=O)C1CCN(S(=O)(=O)c2ccc(Cl)s2)CC1	12.3 (≈ 36.4 µM)
O=S(=O)(NCc1ccccc1)c1ccc(Br)s1	21.3 (≈ 64.1 µM)
O=C(COC(=O)c1cnccn1)NC1CCCc2ccccc21 (stereo not drawn)	> 46.7
COc1cc2c(cc1OC)C(C)N(C(=O)c1cc3c(C)cc(C)cc3[nH]1)CC2 (stereo not drawn)	4.7 (≈ 12.4 µM)
OC(c1ccccc1)c1nccc2ccccc12 (stereo not drawn)	> 35.3
O=C(CC(c1ccccc1)c1ccco1)N1CCCCC1 (stereo not drawn)	> 42.5
COc1ccc2oc3c(c2c1)NC(=O)CN=C3c1ccccc1	3.1 (≈ 10.1 µM)
Cc1nnc(N)s1	> 17.3
O=C(OCC(=O)N1CCOCC1)c1ccc(O)cc1	31 (≈ 117 µM)
O=C(Cc1ccccc1)Nc1cc([N+](=O)[O-])ccc1N1CCOCC1	9.8 (≈ 28.7 µM)
CN1CC(C#N)C2(O)c3ccccc3CCC2C1 (stereo not drawn)	> 36.3
C[C@H](NC(=O)c1ccco1)C(=O)Nc1cc(S(=O)(=O)N2CCCC2)ccc1OCC(F)(F)F	> 73.4
O=C(CN1C(=O)NC2(CCCC2)C1=O)Nc1cc(C(F)(F)F)ccc1N1CCOCC1	5.2 (≈ 11.8 µM)
Cc1cccc(NC(=O)c2ccc3c(c2)OCCO3)c1	35.5 (≈ 132 µM)
Cn1c(C2CCCCC2)nc2cc(N)ccc21	> 34.4
S=C(CN1CCCC1=S)NCCc1ccccc1	> 41.8

Structure (SMILES)	solubility kinetic [µg/mL]
CC(C)C(=O)Nc1oc(-c2ccccc2)cc1C#N	10.5 (≈ 41.3 µM)
Clc1ccc(-c2noc(/C=C/c3ccccc3)n2)cc1	< 0.3
O=C(NC12CC3CC(CC(C3)C1)C2)c1ccc(N2CCNCC2)c([N+](=O)[O-])c1	40.8 (≈ 106 µM)
Cc1nc(C)c(C(=O)O)c(-c2cccs2)c1C(=O)O	> 41.6
O=C(O)c1ccc(NC2=Nc3cccc4cccc2c34)cc1	36 (≈ 125 µM)
Cn1cc(C(=O)Nc2ccc(C#N)cc2)c2ccccc2c1=O	< 0.2
O=C(NNC(=O)C12CC3CC(CC(C3)C1)C2)c1cccc([N+](=O)[O-])c1	> 51.5
C=C(Br)Cn1cnc2ccccc21	> 35.6
Cc1ncc([N+](=O)[O-])n1CC(=O)Nc1ccccc1F	> 41.7
O=C(Nc1cccc([N+](=O)[O-])c1)C1COc2ccccc2O1 (stereo not drawn)	5.4 (≈ 18 µM)
Cn1c(N2CCCC2)nc2c1c(=O)[nH]c(=O)n2C	> 37.4
CNC(=S)N1CCN(c2nc3ccccc3s2)CC1	4 (≈ 13.7 µM)
CN=C(C)/C(C(=O)OC)=C(/O)c1ccc(Cl)cc1Cl	34 (≈ 113 µM)
O=C(NC1CCSC1=O)C1CCCCC1 (stereo not drawn)	> 34.1
Cn1c(N)c(C(=O)CN2CCc3ccccc3C2)c(=O)n(C)c1=O	> 49.3
O=[N+]([O-])c1cccc2nc(-c3ccccc3)c(-c3ccccc3)nc12	< 0.2
CC(C)(C)Nc1nc(Cl)nc(NCCN2CCOCC2)n1	46.1 (≈ 146 µM)
Nc1c(C(=O)N2CCCC2)sc2nc3c(cc12)CCCCCC3	3.2 (≈ 9.71 µM)
O=C(CCNC(=O)c1ccccc1)Nc1cccnc1	> 40.4
O=C(O)C1C2C=CC(O2)C1C(=O)Nc1cccc(C(F)(F)F)c1 (stereo not drawn)	> 49.1

Structure (SMILES)	solubility kinetic [µg/mL]
Cc1ccc(S(=O)(=O)N(C)CC(=O)Nc2cccnc2)cc1	41.5 (≈ 130 µM)
S=c1[nH]c(-c2cccs2)cn1-c1ccccc1	10.5 (≈ 40.6 µM)
c1ccc(N2CCOCCOCCOCCOCCOCC2)cc1	> 50.9
CC(=O)Nc1ccc(S(=O)(=O)N2CCSC2)cc1	29.8 (≈ 104 µM)
NC(=O)C1CCN(CC(O)COCc2ccccc2Cl)CC1 (stereo not drawn)	> 49
CCOC(=O)C1CCN(C(=O)c2ccc3c(c2)OCCO3)CC1	44.4 (≈ 139 µM)
CN1C(=O)NC(c2ccccc2[N+](=O)[O-])C2=C1CCCC2=O (stereo not drawn)	> 45.2
COc1ccccc1NS(=O)(=O)c1ccc(C(=O)N2CCN(c3ccccn3)CC2)cc1	53.9 (≈ 119 µM)
O=C1C2C3CCC(O3)C2C(=O)N1c1cccc(F)c1 (stereo not drawn)	39.2 (≈ 150 µM)
O=C(CCCCl)NC(=S)Nc1ccc(N2CCOCC2)cc1	11.4 (≈ 33.3 µM)
Cl.OC12CC3C[C@H](C1)C(N1CCOCC1)[C@@H](C3)C2 (stereo partly drawn)	36.8
Fc1ccccc1-c1nc2nc3ccccc3nc2n1CC1CCCO1 (stereo not drawn)	> 52.3
CC1CN(c2nc3ccccc3nc2NS(=O)(=O)c2ccccc2)CC(C)O1 (stereo not drawn)	> 59.8
Cl.c1ccc(CCNCc2cccs2)cc1	32.6
C[C@@H](C(=O)Nc1ccc(OC(F)F)c(Cl)c1)N1C(=O)C2CC=CCC2C1=O (stereo partly drawn)	> 59.8
CC1CN(C(=S)Nc2cccc(F)c2)CC(C)O1 (stereo not drawn)	40.2 (≈ 150 µM)
CC1CC(C)CN(CC(=O)N2CCOCC2)C1.Cl (stereo not drawn)	> 41.5
CC(=O)NC(c1ccc(C)cc1)c1cc(Cl)c2cccnc2c1O (stereo not drawn)	< 0.4
CC(=O)N1CCc2cc(S(=O)(=O)Nc3ccc(C)cc3)ccc21	3.6 (≈ 10.9 µM)
Cc1noc(C)c1C(=O)OC(C)C(=O)Nc1ccc2c(c1)OCO2 (stereo not drawn)	11.8 (≈ 35.5 µM)

Second part, the compound after the results:

solubility kinetic [µg/mL]	Structure (SMILES)
5.2 (≈ 15.3 µM)	NC(=O)NC(=O)COC(=O)c1ccc2noc(-c3ccccc3)c2c1
> 41	COc1ccc(CC(=O)NCCC2=CCCCC2)cc1
46.1 (≈ 124 µM)	O=C(O)COc1ccccc1-c1nc(-c2ccccc2)c(-c2ccccc2)[nH]1
35 (≈ 149 µM)	COc1ccc(CNC(=O)/C=C/C(=O)O)cc1
0.4 (≈ 1.51 µM)	Cc1ccc(Nc2nc3ccccc3c(=O)[nH]2)cc1C
40.4 (≈ 144 µM)	CCN1C(=O)C(=O)N(Cc2ccc(OC)c(F)c2)C1=O
11.4 (≈ 38.6 µM)	CCOC(=O)c1ccc2c(c1)nc(-c1ccccn1)n2CC
< 0.7	COc1ccc(OC)c(/C=C/c2ccc3cccc(O)c3n2)c1
19.4 (≈ 61.9 µM)	COc1cccc(CN(C)C(=O)C23CC4CC(CC(C4)C2)C3)c1
39.5 (≈ 102 µM)	CCOc1ccc(CCNC(=O)COC(=O)/C=C/c2ccco2)cc1OCC
5.4 (≈ 20.1 µM)	COC(=O)c1ccc(NC(=O)c2cccc(C)c2)cc1
> 41.3	COc1cccc(C(C)NC(=O)Cc2cccs2)c1 (stereo not drawn)
< 0.7	O=C(Nc1ccccc1C(F)(F)F)c1cc2ccccc2o1
47.2 (≈ 139 µM)	CCOC(=O)Nc1ccc(S(=O)(=O)Nc2onc(C)c2C)cc1
48.3 (≈ 137 µM)	COc1ccccc1NC(=S)N(Cc1cccnc1)Cc1ccco1
44.5 (≈ 138 µM)	CCCS(=O)(=O)Nc1ccc(-c2cn3c(n2)SCC3)cc1
> 46.6	COc1ccc(CNC2CCN(Cc3ccccc3)CC2)cc1
< 0.4	CCOC(=O)c1sc(=NC(=O)c2ccc(OC(C)C)cc2)n(C)c1C
> 41.4	COc1ccc(Cc2nnc(NCCO)[nH]c2=O)cc1
< 0.7	COc1ccc(C(=O)Nc2cc(OC)c(Cl)cc2OC)cc1

solubility kinetic [µg/mL]	Structure (SMILES)
> 42.9	O=C(Nc1ccc(CN2CCOCC2)cc1)c1ccco1
> 41.8	COCCn1c(/C=C/c2ccccc2)nc2ccccc21
38.5 (≈ 112 µM)	O=C(NCC(O)CO)c1csc(Nc2cccc3ccccc23)n1 (stereo not drawn)
4.6 (≈ 13.9 µM)	CCN(CC)c1ccc(C(=O)OCC(=O)Nc2cc(C)on2)cc1
46.5 (≈ 149 µM)	COc1ccc(OC)c(CNS(=O)(=O)c2cn(C)cn2)c1
5.1 (≈ 15.9 µM)	CCCOc1ccccc1/C=C(\C#N)C(=O)Nc1cccc(C)n1
4.5 (≈ 13.6 µM)	O=c1nc(SCc2ccc(Cl)cc2)nc(-c2ccccc2)[nH]1
10 (≈ 20.6 µM)	CCCCN(C(=O)c1cc(-c2ccncc2)nc2ccccc12)c1c(N)n(CC(C)C)c(=O)[nH]c1=O
1.2 (≈ 3.56 µM)	CSc1nc2c(c(=O)[nH]c(=O)n2C)n1Cc1ccc(Cl)cc1
> 38.1	Cc1cc(C(=O)NC2CCCC2)c2ccccc2n1
> 38.7	COc1cccc(C(=O)Nc2ccncc2)c1OC
> 48.8	C=CCOc1c(CNc2ccc3[nH]c(=O)[nH]c3c2)cccc1OC
> 49.5	O=C(Cc1ccccc1Cl)NC1(O)C(=O)c2ccccc2C1=O
41.5 (≈ 143 µM)	O=C(O)c1cc(-c2ccc(Cl)s2)nc2ccccc12
> 49.7	CCCNC(=O)c1ccc(COc2ccc(CCC)cc2OC)o1
> 82.3	CCN(C(=O)COC(=O)CNC(=O)c1ccc(Cl)cc1Cl)c1c(N)n(Cc2ccccc2)c(=O)[nH]c1=O
4.2 (≈ 16.6 µM)	COc1ccc(C(C#N)=C2C=CC(=NO)C=C2)cc1
> 52	O=C(NCc1ccc(Cl)cc1)C1CCN(C(=O)c2ccco2)CC1
2.9 (≈ 9.74 µM)	CCOC(=O)c1csc(COc2ccccc2Cl)n1
3.3 (≈ 9.29 µM)	COc1ccccc1/C=C/C(=O)OCC(=O)Nc1ccc2c(c1)OCO2

solubility kinetic [µg/mL]	Structure (SMILES)
> 47.5	COc1ccc(/C=C/C(=O)NCCCN2CCCCCC2)cc1
> 48.8	CCN(C(=O)CN1C(=O)CN(C)C1=O)c1cccc2ccccc12
> 47.2	COc1ccc(CCNC(=O)COC(=O)c2ccccn2)cc1
> 64.3	COc1cc(CCC(=O)OCC(=O)N2CC(=O)Nc3ccccc32)cc(OC)c1OC
> 54.3	CCn1c(=N)n(CC(O)COc2ccc(C)cc2)c2ccccc21.Cl (stereo not drawn)
0.8 (≈ 3.32 µM)	Cc1ccc(NC(=O)Nc2cccc(C)n2)cc1
> 49.1	CCc1cc2c(NC(Cc3ccccc3)C(=O)O)ncnc2s1 (stereo not drawn)
> 41.9	Cc1[nH]c2ccc(C(=O)NCc3ccccn3)cc2c1C
15.1 (≈ 60.8 µM)	Cc1cccc(NCc2ccc([N+](=O)[O-])s2)c1
27 (≈ 72.3 µM)	O=C(NC(=S)Nc1ccc(CN2CCOCC2)cc1)c1cccc(F)c1
5 (≈ 20.8 µM)	O=[N+]([O-])c1ccc2nc(-c3ccccn3)[nH]c2c1
57	CCOC(=O)C1(Cc2ccccc2)C(=O)N(CCCN(C)C)c2ccccc21.Cl (stereo not drawn)
1.4 (≈ 5.16 µM)	O=C(NCCCCc1ccccc1)c1ccc(F)cc1
57.8 (≈ 149 µM)	COc1ccccc1CNC(=O)CCNS(=O)(=O)/C=C/c1ccc(C)cc1
> 47.3	CC(=O)NCCc1ccc(C(=O)COC(=O)c2ccco2)cc1
> 48.2	COc1ccc(OC)c(NC(=O)CC2(CC(=O)O)CCCC2)c1
> 36.5	Cc1[nH]c2ccccc2c1-c1nc(N)sc1C
> 34.8	CN(C)CCC(=O)c1ccc(F)cc1.Cl
